Assay results published in the NIST ThermoML archive (doi:10.1016/j.tca.2014.11.027).
Numbers after ± are expanded uncertainties.

Details: Liquid; Gas Chromatography

Row | SMILES | Normal boiling temperature [°C]
1 | CCCCCCCCP(=O)(OCCCC)OCCCC [dibutyl octylphosphonate] | 332.96 ± 2
2 | CCCCCCP(=O)(OCCCCC)OCCCCC [dipentyl hexylphosphonate] | 344.43 ± 2
3 | CCCCCOP(=O)(CCCC)OCCCCC [dipentyl butylphosphonate] | 319.84 ± 2
4 | CCCCP(=O)(OCCC(C)C)OCCC(C)C [diisopentyl butylphosphonate] | 306.90 ± 2
5 | CCCCOP(=O)(CCCC)OCCCC [dibutyl butanephosphonate] | 292.92 ± 2
6 | CCCCCCP(=O)(OCCCC)OCCCC [dibutyl hexylphosphonate] | 319.92 ± 2
7 | CCCCCCP(=O)(OCCC(C)C)OCCC(C)C [diisopentyl hexylphosphonate] | 332.33 ± 2
8 | CCCCCP(=O)(OCCCC)OCCCC [dibutyl pentylphosphonate] | 306.70 ± 2
9 | CCCCCP(=O)(OCCC(C)C)OCCC(C)C [diisopentyl pentylphosphonate] | 321.52 ± 2
10 | CCCCCOP(=O)(CCCCC)OCCCCC [dipentyl pentylphosphonate] | 332.64 ± 2
